From US7851437B2, “Drug conjugates and their use for treating cancer, an autoimmune disease or an infectious disease” (Seattle Genetics Inc., priority 2002, dated 2010)
*1 amine or outer side, *2 acyl side, *3 side chain or, on linkers, in order; H or OH if unused. Where a SMILES comes first, the peptide text is derived from it. [ ]: non-standard residue; d: D form. The star is where a group is joined. Dolaproine = CO[C@@H]([C@@H]1CCCN1)[C@@H](C)C(=O)O; Phenylenediamine(1,4) = c1cc(N[*:2])ccc1N[*:1]; Dil = CC[C@H](C)[C@H](NC)[C@@H](CC(=O)O)OC; NMe2Val = CC(C)[C@@H](C(=O)*)N(C)C; X1 = C[C@@H](N*)[C@@H](O)c1ccccc1; NMeV = CN[C@H](C(=O)O)C(C)C

Tested on: H3396 human breast carcinoma cells (cBR96 antigen positive, cAC10 antigen negative)
Experiment: In vitro cytotoxicity, Alamar Blue assay, H3396 cells
Type: cell-based
Conditions: exposure for 1 hour
From the text: The cell lines used were H3396 human breast carcinoma (cBR96 antigen positive, cAC10 antigen negative), HCT-116 human colorectal carcinoma (cBR96 and cAC10 antigen negative), and Karpas human anaplastic large cell lymphoma (ALCL) (cBR96 antigen negative, cAC10 antigen positive). These cell lines are available from ATCC. CD30-positive Hodgkin's Disease (HD) cell line L540 and the ALCL cell line Karpas 299 were obtained from the Deutsche Sammlung von Mikroorganism and Zellkulturen GmbH (Braunschweig, Germany). L540cy, a derivative of the HD line L540 adapted to xenograft growth, was provided by Dr. Phil Thorpe (U of Texas Southwestern Medical Center, Dallas, Tex.). Cell lines were grown in RPMI-1640 media (Life Technologies Inc., Gaithersburg, Md.) supplemented with 10% fetal bovine serum.H3396 cells in RPMI containing 10% fetal bovine serum (referred to as medium) were plated in 96-well plates at approximately 3,000-10,000 cells/well and allowed to adhere overnight. The non-adherent Karpas cell line was plated out at approximately 10,000 cells/well at the initiation of the assay. Various concentrations of illustrative Compounds of the Invention in medium were added in triplicate, and after the times indicated IN FIGS. 1-7, the medium was removed, and the cells were washed with fresh medium three times. After a 96 hour incubation period at 37° C., Alamar Blue was added and cell viability was determined 4 hours later as described by Ahmed S A, Gogal R M Jr, Walsh J E., J. Immunol. Methods, 170, 211-224, 1994.

[1] = concentrations between 0.01 mM and 1.0 mM

SMILES	cytotoxicity (FIG. 1) [1]	cytotoxicity (FIG. 1) (concentrations of up to 0.01 mM)
CC[C@H](C)[C@@H]([C@@H](CC(=O)N1CCC[C@H]1[C@H](OC)[C@@H](C)C(=O)N[C@H](C)[C@@H](O)c1ccccc1)OC)N(C)C(=O)[C@@H](NC(=O)[C@@H](NC)C(C)C)C(C)C [Compound 49] (H-[NMeV]V[Dil][Dolaproine]-X1)	substantially equal cytotoxicity	–
CC[C@H](C)[C@@H]([C@@H](CC(=O)N1CCC[C@H]1[C@H](OC)[C@@H](C)C(=O)N[C@@H](Cc1ccccc1)C(=O)Nc1ccc(N)cc1)OC)N(C)C(=O)[C@@H](NC(=O)[C@H](C(C)C)N(C)C)C(C)C [Compound 53] (NMe2Val-V[Dil][Dolaproine]F-{Phenylenediamine(1,4)})	substantially equal cytotoxicity	more cytotoxic than Compound 49
